Results reported in US10519162B2, “6,7-dihydropyrazolo[1,5-α]pyrazin-4(5H)-one compounds and their use as negative allosteric modulators of mGluR2 receptors” (Janssen Pharmaceutica NV, priority 2014, dated 2019).
Read-outs that look alike come from different tables or passages of the source.

Key:
human mGlu2 receptor = target: T1, human mGlu2 receptor (Homo sapiens, UniProt Q14416); experiment: [35S]GTPγS binding assay (mGluR2 negative allosteric modulation, glutamate ~EC80 60 μM); format: biochemical; conditions: for Emax: read-out: GTPγS-hmGluR2 anGT Emax; for IC50: glutamate ~EC80 (60 μM), pIC50 = −log IC50 (M)
T1 construct: expressed in transfected cells; host or cells: CHO cells
T1 sequence (Q14416 19-872): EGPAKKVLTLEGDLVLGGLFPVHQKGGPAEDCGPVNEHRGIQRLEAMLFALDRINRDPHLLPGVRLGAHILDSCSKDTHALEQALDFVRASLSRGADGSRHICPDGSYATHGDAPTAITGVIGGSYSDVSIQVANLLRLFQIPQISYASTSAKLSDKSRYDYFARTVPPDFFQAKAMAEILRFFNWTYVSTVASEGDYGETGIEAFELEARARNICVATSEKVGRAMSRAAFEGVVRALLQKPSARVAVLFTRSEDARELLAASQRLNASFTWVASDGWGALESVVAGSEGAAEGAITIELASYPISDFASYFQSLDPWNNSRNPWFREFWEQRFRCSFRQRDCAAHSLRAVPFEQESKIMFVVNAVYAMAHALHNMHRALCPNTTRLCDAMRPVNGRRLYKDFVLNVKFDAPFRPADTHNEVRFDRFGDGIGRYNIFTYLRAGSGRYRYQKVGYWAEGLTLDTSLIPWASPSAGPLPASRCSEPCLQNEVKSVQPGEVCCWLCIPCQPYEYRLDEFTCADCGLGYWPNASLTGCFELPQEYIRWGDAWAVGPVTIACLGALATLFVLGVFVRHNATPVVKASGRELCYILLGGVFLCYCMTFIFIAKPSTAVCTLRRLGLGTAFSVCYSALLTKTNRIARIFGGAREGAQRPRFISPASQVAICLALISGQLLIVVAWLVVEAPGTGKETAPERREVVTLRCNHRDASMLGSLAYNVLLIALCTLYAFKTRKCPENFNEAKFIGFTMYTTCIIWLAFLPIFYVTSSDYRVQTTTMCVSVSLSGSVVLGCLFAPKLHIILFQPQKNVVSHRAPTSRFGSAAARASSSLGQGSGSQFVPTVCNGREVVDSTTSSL
Procedure: 1) [^35S]GTPγS Binding Assay
[^35S]GTPγS Binding Assay
Total reaction volume was 200 μl. […] Membrane-bound radioactivity was counted in a Topcount.

[1] = maximal % inhibition relative to the control glutamate response (EC80 glutamate)
[2] = membranes from CHO cells transfected with human mGlu2 receptor, read-out: GTPγS-hmGluR2 anGT pIC50 (converted)
[3] = GTPγS-hmGluR2 anGT pIC50, membranes from CHO cells transfected with human mGlu2 receptor

SMILES | Emax (human mGlu2 receptor; [1]) [%] | IC50 (human mGlu2 receptor; [2]) [M] | melting point [°C] | GTPγS-hmGluR2 anGT Emax (human mGlu2 receptor; [1]) [%] | IC50 (human mGlu2 receptor; [3]) [M] | Emax (human mGlu2 receptor) [%]
Cc1nc(C(=O)Nc2cnn3c2C(=O)N(c2ccc(C(F)(F)F)cc2)C[C@@H]3C)co1 [Co. No. 81] | 103 | 1.02e-07 | 189.92 | – | – | –
Cc1cc(C(=O)Nc2cnn3c2C(=O)N(c2ccc(C(F)(F)F)cc2)C[C@@H]3C)no1 [Co. No. 72] | 99 | 4.27e-08 | 209.27 | – | – | –
C[C@H]1CN(c2ccc(C(F)(F)F)cc2)C(=O)c2c(NC(=O)c3ccc(C(N)=O)cn3)cnn21 [Co. No. 82, N2-[(7S)-7-Methyl-4-oxo-5-[4-(trifluoromethyl)phenyl]-6,7-dihydropyrazolo[1,5-a]pyrazin-3-yl]pyridine-2,5-dicarboxamide] | 104 | 1.12e-07 | 278.58 | – | – | –
C[C@H]1CN(c2ccc(C(F)(F)F)cc2)C(=O)c2c(NC(=O)c3ccc(F)cn3)cnn21 [Co. No. 48] | 108 | 1.32e-08 | 221.22 | – | – | –
COc1ncccc1C(=O)Nc1cnn2c1C(=O)N(c1ccc(C(F)(F)F)cc1)C[C@@H]2C [Co. No. 43] | 114 | 1.12e-08 | 213.83 | – | – | –
C[C@H]1CN(c2ccc(C(F)F)c(Cl)c2)C(=O)c2c(NC(=O)c3ccc(N)nc3)cnn21 [Co. No. 40] | – | – | 133.34 | 113 | – | –
COc1ccc(F)c(C(=O)Nc2cnn3c2C(=O)N(c2ccc(C(F)(F)F)cc2)C[C@@H]3C)c1 [Co. No. 37] | 116 | 9.12e-09 | 185.41 | – | – | –
C[C@H]1CN(c2ccc(C(F)(F)F)cc2)C(=O)c2c(NC(=O)c3cn[nH]c3)cnn21 [Co. No. 79] | 107 | 8.51e-08 | 240.1 | – | – | –
C[C@H]1CN(c2ccc(C(F)(F)F)cc2)C(=O)c2c(NC(=O)c3ccc(C#N)cn3)cnn21 [Co. No. 85] | 106 | 1.66e-07 | 291.58 | – | – | –
COc1ccc(C(=O)Nc2cnn3c2C(=O)N(c2ccc(C(F)(F)F)cc2)C[C@@H]3C)cc1F [Co. No. 23] | 105 | 5.5e-09 | 152.43 | – | – | –
Cc1ccc(C(=O)Nc2cnn3c2C(=O)N(c2ccc(C(F)(F)F)cc2)C[C@@H]3C)cn1 [Co. No. 54] | 104 | 1.78e-08 | 175.17 | – | – | –
COCC1CN(c2ccc(C(F)(F)F)cc2)C(=O)c2c(NC(=O)c3ccccc3F)cnn21 (single isomer, unassigned) [Co. No. 62b] | – | 4.79e-06 | 162.51 | 66 | – | –
C[C@H]1CN(c2ccc(C(F)(F)F)cc2)C(=O)c2c(NC(=O)c3cncc(F)c3)cnn21 [Co. No. 31] | 114 | 7.24e-09 | 185.29 | – | – | –
COc1cc(F)ccc1C(=O)Nc1cnn2c1C(=O)N(c1ccc(C(F)(F)F)cc1)C[C@@H]2C [Co. No. 58] | 101 | 2.19e-08 | 240.77 | – | – | –
C[C@H]1CN(c2ccc(C(F)(F)F)cc2)C(=O)c2c(NC(=O)Cc3ccccc3)cnn21 [Co. No. 87] | 103 | 2e-07 | 135.05 | – | – | –
C[C@H]1CN(c2ccc(C(F)(F)F)cn2)C(=O)c2c(NC(=O)c3ccc(N)nc3)cnn21 [Co. No. 61] | 103 | 2.45e-08 | 223.46 | – | – | –
C[C@H]1CN(c2ccc(C(F)(F)F)cc2)C(=O)c2c(NC(=O)c3ncc[nH]3)cnn21 [Co. No. 80] | 111 | 1e-07 | 275.03 | – | – | –
COc1nc(N2C[C@H](C)n3ncc(NC(=O)c4ccccc4)c3C2=O)ccc1Cl [Co. No. 76, N-[(7S)-5-(5-Chloro-6-methoxy-2-pyridyl)-7-methyl-4-oxo-6,7-dihydropyrazolo[1,5-a]pyrazin-3-yl]benzamide] | 106 | 5.89e-08 | 188.77 | – | – | –
Cc1ncccc1C(=O)Nc1cnn2c1C(=O)N(c1ccc(C(F)(F)F)cc1)C[C@@H]2C [Co. No. 66] | 104 | 2.75e-08 | 120.37 | – | – | –
C[C@H]1CN(c2ccc(C(F)(F)F)cc2)C(=O)c2c(NC(=O)c3cccc(S(=O)(=O)F)c3)cnn21 [Co. No. 217] | – | – | 161.88 | – | 1.07e-08 | 110
COc1cccc(C(=O)Nc2cnn3c2C(=O)N(c2ccc(C(F)(F)F)cc2)C[C@@H]3C)n1 [Co. No. 21] | 106 | 4.68e-09 | 199.24 | – | – | –
C[C@H]1CN(c2ccc(C(F)(F)F)cc2)C(=O)c2c(NC(=O)c3ccc(S(=O)(=O)F)cc3)cnn21 [Co. No. 218] | – | – | 163.64 | – | 4.37e-08 | 112
Cc1cccc(C(=O)Nc2cnn3c2C(=O)N(c2ccc(C(F)(F)F)cc2)C[C@@H]3C)c1 [Co. No. 9] | 106 | 2.45e-09 | 147.4 | – | – | –
C[C@H]1CN(c2ccc(C(F)(F)F)cc2)C(=O)c2c(NC(=O)c3ccc(Cl)cn3)cnn21 [Co. No. 46] | 104 | 1.26e-08 | 237.65 | – | – | –
C[C@H]1CN(c2ccc(C(F)(F)F)cc2)C(=O)c2c(NC(=O)CC3CC3)cnn21 [Co. No. 73] | 98 | 4.79e-08 | 152.2 | – | – | –
COc1cccc(C(=O)Nc2cnn3c2C(=O)N(c2ccc(C(F)(F)F)cc2)C[C@@H]3C)c1F [Co. No. 59] | 110 | 2.24e-08 | 205.32 | – | – | –

Continued, in another order:

Emax (human mGlu2 receptor; [1]) [%] | IC50 (human mGlu2 receptor; [2]) [M] | melting point [°C] | GTPγS-hmGluR2 anGT Emax (human mGlu2 receptor; [1]) [%] | SMILES | IC50 (human mGlu2 receptor; [3]) [M] | Emax (human mGlu2 receptor) [%]
100 | 2.45e-07 | 285.92 | – | Cc1cc(C(=O)Nc2cnn3c2C(=O)N(c2ccc(C(F)(F)F)cc2)C[C@@H]3C)[nH]n1 [Co. No. 89] | – | –
108 | 1.35e-09 | 233.32 | – | Cc1cc(N)ncc1C(=O)Nc1cnn2c1C(=O)N(c1ccc(C(F)(F)F)c(Cl)c1)C[C@@H]2C [Co. No. 164] | – | –
109 | 2.45e-09 | 124.01 | – | Cc1cc(C(=O)Nc2cnn3c2C(=O)N(c2ccc(C(F)(F)F)c(Cl)c2)C[C@@H]3C)cc(Cl)n1 [Co. No. 142] | – | –
106 | 2.45e-08 | 89.55 | – | Cc1c(F)cncc1C(=O)Nc1cnn2c1C(=O)N(c1ccc(C(F)(F)F)cc1)C[C@@H]2C [Co. No. 136] | – | –
108 | 2.29e-09 | 97.9 | – | Cc1c(F)cncc1C(=O)Nc1cnn2c1C(=O)N(c1ccc(C(F)(F)F)c(Cl)c1)C[C@@H]2C [Co. No. 135] | – | –
106 | 7.08e-07 | 142.94 | – | C[C@H]1CN(c2ccc(C(F)(F)F)cc2)C(=O)c2c(NC(=O)C3CCOCC3)cnn21 [Co. No. 186] | – | –
101 | 3.47e-07 | 162.27 | – | C[C@H]1CN(c2ccc(C(F)(F)F)cc2)C(=O)c2c(NC(=O)c3cncn3C)cnn21 [Co. No. 91] | – | –
108 | 5.62e-09 | 148.36 | – | Cc1cc(C(=O)Nc2cnn3c2C(=O)N(c2ccc(C(F)(F)F)c(F)c2)C[C@@H]3C)cc(C)n1 [Co. No. 129] | – | –
107 | 7.41e-09 | 134.44 | – | Cc1cc(C(=O)Nc2cnn3c2C(=O)N(c2ccc(C(F)(F)F)c(F)c2)C[C@@H]3C)ccn1 [Co. No. 130] | – | –
111 | 3.16e-07 | 153.01 | – | C[C@H]1CN(c2ccccc2)C(=O)c2c(NC(=O)c3ccnc(N)c3)cnn21 [Co. No. 97] | – | –
105 | 2.45e-07 | 152.2 | – | C[C@@H]1CN(c2ccc(C(F)(F)F)cc2)C(=O)c2c(NC(=O)c3cccnc3)cnn21 [Co. No. 188] | – | –
99 | 2.24e-07 | 231.1 | – | Cc1ncc(C(=O)Nc2cnn3c2C(=O)N(c2ccc(C(F)(F)F)cc2)C[C@@H]3C)cn1 [Co. No. 88] | – | –
105 | 1.58e-09 | 181.21 | – | C[C@H]1CN(c2ccc(OC(F)(F)F)c(Cl)c2)C(=O)c2c(NC(=O)c3cccnc3)cnn21 [Co. No. 195] | – | –
107 | 3.31e-09 | 183.54 | – | C[C@H]1CN(c2ccc(C(F)(F)F)cc2)C(=O)c2c(NC(=O)c3cncc(F)n3)cnn21 [Co. No. 219, 6-fluoro-N-[(7S)-7-methyl-4-oxo-5-[4-(trifluoromethyl)phenyl]-6,7-dihydropyrazolo[1,5-a]pyrazin-3-yl]pyrazine-2-carboxamide] | – | –
107 | 2.75e-09 | 196.39 | – | Cc1cc(C(=O)Nc2cnn3c2C(=O)N(c2ccc(C(F)(F)F)cc2)C[C@@H]3C)cc(N)n1 [Co. No. 162] | – | –
102 | 1.07e-06 | 162.12 | – | O=C(Nc1cnn2c1C(=O)N(c1ccc(C(F)(F)F)cc1)CC2)c1cccnc1 [Co. No. 190] | – | –
106 | 2.57e-09 | 226.06 | – | Cc1cc(N)ncc1C(=O)Nc1cnn2c1C(=O)N(c1ccc(C(F)(F)F)cc1)C[C@@H]2C [Co. No. 163, 6-Amino-4-methyl-N-[(7S)-7-methyl-4-oxo-5-[4-(trifluoromethyl)phenyl]-6,7-dihydropyrazolo[1,5-a]pyrazin-3-yl]pyridine-3-carboxamide] | – | –
106 | 1.74e-08 | 153.4 | – | COc1cncc(C(=O)Nc2cnn3c2C(=O)N(c2ccc(Cl)cc2)C[C@@H]3C)c1 [Co. No. 137] | – | –
